Target: T1, PnLOXA (Vitis vinifera, UniProt D7SLA9)
T1 construct: gene VIT_06s0004g01510
Conditions: 0.1 mM substrate, pH 6.5, 25 °C; exclusively 13-product

T1 sequence (D7SLA9 entry or part of it): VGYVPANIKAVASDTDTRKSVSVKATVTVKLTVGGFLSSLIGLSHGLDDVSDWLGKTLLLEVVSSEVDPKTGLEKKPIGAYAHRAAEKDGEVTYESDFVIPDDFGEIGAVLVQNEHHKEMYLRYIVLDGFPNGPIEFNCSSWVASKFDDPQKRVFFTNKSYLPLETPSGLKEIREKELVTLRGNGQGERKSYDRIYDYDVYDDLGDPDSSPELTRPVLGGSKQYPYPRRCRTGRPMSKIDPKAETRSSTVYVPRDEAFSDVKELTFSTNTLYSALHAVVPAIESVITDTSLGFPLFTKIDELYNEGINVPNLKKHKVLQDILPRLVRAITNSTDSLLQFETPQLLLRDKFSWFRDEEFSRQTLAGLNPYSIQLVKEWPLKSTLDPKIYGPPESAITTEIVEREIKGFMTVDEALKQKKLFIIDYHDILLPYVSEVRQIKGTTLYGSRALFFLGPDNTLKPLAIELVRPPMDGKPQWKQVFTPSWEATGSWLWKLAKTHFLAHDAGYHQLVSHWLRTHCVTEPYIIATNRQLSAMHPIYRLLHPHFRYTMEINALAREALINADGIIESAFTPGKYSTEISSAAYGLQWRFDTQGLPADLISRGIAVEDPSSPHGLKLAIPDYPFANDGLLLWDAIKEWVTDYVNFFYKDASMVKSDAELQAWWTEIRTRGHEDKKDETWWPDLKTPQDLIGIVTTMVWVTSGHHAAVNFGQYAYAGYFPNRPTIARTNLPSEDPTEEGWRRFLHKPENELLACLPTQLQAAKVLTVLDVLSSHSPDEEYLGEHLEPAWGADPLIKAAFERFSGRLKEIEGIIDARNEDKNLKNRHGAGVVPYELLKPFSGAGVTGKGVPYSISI

CC/C=C\C/C=C\C/C=C\CCCCCCCC(=O)O [α-linolenic acid]
peroxidation product identified by ESI-MS/MS: PnLOXA catalyzed the regiospecific peroxidation of α-linolenic acid to produce exclusively 13-HOTrE
